Assay results taken from patent US20220339122A1, “METHODS FOR THE TREATMENT OF DISEASES ASSOCIATED WITH DYSREGULATED ACTIVATION AND RECRUITMENT OF NEUTROPHILS” (Chang Gung University, priority 2021, published 2022).

What was measured:
Assay type in all cases: biochemical
Conditions in all cases: 1-10 μM bletinib or 0.1-3 μM PP2; 125 μM ATP; concentration-dependent
[1] = molecular target: Fgr (Homo sapiens, UniProt P09769); assay: Cell-free ADP-Glo kinase assay, Fgr
Experimental: (§1) The kinase activity of SFKs was assessed using an ADP-Glo kinase assay kit (Promega, Fitchburg, USA) according to manufacturer instructions. […] The ADP-Glo reagent was used to end the kinase reaction and remove the remnant ATP; next, the kinase, which converted ADP to ATP, detection reagent was added and incubated for 30 min. Luciferin/luciferase luminescence was determined on an Infinite 200 Pro (Tecan, Switzerland).

[2] = molecular target: Src (Homo sapiens, UniProt P12931); assay: Cell-free ADP-Glo kinase assay, Src
Sequence of Src (P12931 whole entry): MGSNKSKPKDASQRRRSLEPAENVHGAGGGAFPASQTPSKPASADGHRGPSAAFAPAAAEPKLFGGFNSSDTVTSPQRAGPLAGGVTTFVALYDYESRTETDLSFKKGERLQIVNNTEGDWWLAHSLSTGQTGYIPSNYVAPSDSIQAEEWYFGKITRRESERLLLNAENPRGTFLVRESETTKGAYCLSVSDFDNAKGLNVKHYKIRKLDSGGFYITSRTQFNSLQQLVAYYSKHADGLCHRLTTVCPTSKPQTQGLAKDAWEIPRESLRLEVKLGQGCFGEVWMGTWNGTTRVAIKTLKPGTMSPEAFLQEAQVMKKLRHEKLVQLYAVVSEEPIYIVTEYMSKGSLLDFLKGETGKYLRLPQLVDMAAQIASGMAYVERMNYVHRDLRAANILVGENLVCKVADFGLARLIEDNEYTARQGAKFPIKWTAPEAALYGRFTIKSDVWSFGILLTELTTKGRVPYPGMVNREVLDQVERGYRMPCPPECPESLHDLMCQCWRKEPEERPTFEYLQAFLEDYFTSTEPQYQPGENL
Experimental: as §1

[3] = molecular target: Lyn (Homo sapiens, UniProt P07948); assay: Cell-free ADP-Glo kinase assay, Lyn
Sequence of Lyn (P07948 whole entry): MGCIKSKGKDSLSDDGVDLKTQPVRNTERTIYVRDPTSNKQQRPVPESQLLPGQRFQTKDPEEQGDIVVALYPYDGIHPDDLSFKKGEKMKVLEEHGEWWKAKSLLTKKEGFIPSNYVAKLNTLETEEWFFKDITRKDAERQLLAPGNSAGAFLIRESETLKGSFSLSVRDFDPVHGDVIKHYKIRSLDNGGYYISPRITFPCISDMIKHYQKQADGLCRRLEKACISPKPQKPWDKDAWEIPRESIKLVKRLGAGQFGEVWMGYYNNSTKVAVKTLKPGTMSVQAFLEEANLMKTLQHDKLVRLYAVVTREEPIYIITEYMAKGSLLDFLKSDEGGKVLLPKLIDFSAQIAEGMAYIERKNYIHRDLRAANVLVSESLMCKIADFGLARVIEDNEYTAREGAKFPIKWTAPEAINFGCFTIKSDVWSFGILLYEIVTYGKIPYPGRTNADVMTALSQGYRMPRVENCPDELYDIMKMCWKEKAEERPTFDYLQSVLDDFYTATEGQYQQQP
Experimental: as §1

Sequence of Fgr (P09769 whole entry): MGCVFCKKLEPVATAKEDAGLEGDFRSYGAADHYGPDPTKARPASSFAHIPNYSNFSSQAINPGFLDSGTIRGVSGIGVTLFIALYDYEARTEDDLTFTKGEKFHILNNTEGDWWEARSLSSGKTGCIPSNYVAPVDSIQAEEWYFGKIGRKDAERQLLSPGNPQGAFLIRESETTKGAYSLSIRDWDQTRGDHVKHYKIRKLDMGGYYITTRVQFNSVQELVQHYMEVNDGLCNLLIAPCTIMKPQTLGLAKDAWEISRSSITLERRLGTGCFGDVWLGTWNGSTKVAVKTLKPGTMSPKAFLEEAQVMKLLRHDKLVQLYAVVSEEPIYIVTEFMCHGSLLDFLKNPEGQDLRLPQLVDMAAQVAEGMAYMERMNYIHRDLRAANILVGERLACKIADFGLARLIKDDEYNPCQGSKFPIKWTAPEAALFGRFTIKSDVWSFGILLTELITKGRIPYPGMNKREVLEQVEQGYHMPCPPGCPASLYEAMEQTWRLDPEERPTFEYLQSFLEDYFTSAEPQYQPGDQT

CC(C)(C)n1nc(-c2ccc(Cl)cc2)c2c(N)ncnc21 [PP2, reference compound]
inhibited: kinase activity of Fgr [1] | kinase activity of Src [2] | kinase activity of Lyn [3]
